Each structure is given as a SMILES string.

As usually defined, the melting point is the temperature, or range, at which the solid turns liquid.

Regarding `O=C1c2c(-c3ccccc3)cc(CNC3CC3)nc2OCCN1Cc1cc(C(F)(F)F)cc(C(F)(F)F)c1` [Example 46, 4-[3,5-Bis(trifluoromethyl)benzyl]-8-cyclopropylaminomethyl-2,3,4,5-tetrahydro-5-oxo-6-phenylpyrido[3,2-f][1,4]oxazepine], the melting point was in the range of 129 to 131 °C.
`CN(C)C(=O)c1cc(-c2ccccc2)c2c(n1)OCCN(Cc1cc(C(F)(F)F)cc(C(F)(F)F)c1)C2=O` [Example 59, 4-[3,5-Bis(trifluoromethyl)benzyl]-N,N-dimethyl-2,3,4,5-tetrahydro-5-oxo-6-phenylpyrido[3,2-f][1,4]oxazepine-8-carboxamide]: the melting point was in the range of 235 to 236 °C.
The value for `O=C1c2c(-c3ccccc3)ccnc2OCCCN1Cc1cc(C(F)(F)F)cc(C(F)(F)F)c1` [Example 22, 5-[3,5-Bis(trifluoromethyl)benzyl]-2,3,4,5-tetrahydro-6-oxo-7-phenyl-6H-pyrido(2,3-b)[1,5]oxazocine] was 188 to 189 °C; that for `CN1CCN(Cc2cc(C(F)(F)F)cc(C(F)(F)F)c2)C(=O)c2c(-c3ccccc3)ccnc2C1=O` [Example 51, 6-[3,5-Bis(trifluoromethyl)benzyl]-5,6,7,8,9,10-hexahydro-9-methyl-5,10-dioxo-4-phenylpyrido[2,3-f][1,4]diazocine] was 167 to 169 °C; that for `C[C@H]1COc2nccc(-c3ccccc3)c2C(=O)N(Cc2cc(C(F)(F)F)cc(C(F)(F)F)c2)C1` [Example 72, (R)-5-[3,5-Bis(trifluoromethyl)benzyl]-2,3,4,5-tetrahydro-3-methyl-6-oxo-7-phenyl-6H-pyrido[2,3-b][1,5]oxazocine] was 142 to 143 °C.
`CS(=O)(=O)NCc1cc(-c2ccccc2)c2c(n1)OCCN(Cc1cc(C(F)(F)F)cc(C(F)(F)F)c1)C2=O` [Example 49, 4-[3,5-Bis(trifluoromethyl)benzyl]-2,3,4,5-tetrahydro-8-methanesulfonylaminomethyl-5-oxo-6-phenylpyrido[3,2-f][1,4]oxazepine]: the melting point is 194 to 195 °C.
The value for `Cc1ccc(-c2ccnc3c2C(=O)N(Cc2cc(C(F)(F)F)cc(C(F)(F)F)c2)CCO3)cc1` [Example 80, 4-[3,5-Bis(trifluoromethyl)benzyl]2,3,4,5-tetrahydro-5-oxo-6-(4-methylphenyl)pyrido[3,2-f][1,4]oxazepine] was 212 to 213 °C.
The value for `Cc1cnc2c(c1-c1ccccc1)C(=O)N(Cc1ccccc1)CCN(C)C2=O` [Example 52, 6-Benzyl-5,6,7,8,9,10-hexahydro-3,9-dimethyl-5,10-dioxo-4-phenylpyrido[2,3-f][1,4]diazocine] was 183 to 184 °C.
The value for `Cc1ccc(-c2c3n(c(=O)c4ncccc24)CCC(C)CN(Cc2cc(C(F)(F)F)cc(C(F)(F)F)c2)C3=O)cc1` (racemic) [Example 16, (+/−)-7-[3,5-Bis(trifluoromethyl)benzyl]-6,7,8,9,10,11-hexahydro-9-methyl-5-(4-methylphenyl)-6,13-dioxo-13H-[1,4]diazocino[2,1-g][1,7]naphthyridine] was 280 to 281 °C.
`Cc1ccc(-c2c3n(c(=O)c4ncccc24)CC[C@@H](C)CN(Cc2cc(C(F)(F)F)cc(C(F)(F)F)c2)C3=O)cc1` [Example 18, (9R)-7-[3,5-Bis(trifluoromethyl)benzyl]-6,7,8,9,10,11-hexahydro-9-methyl-5-(4-methylphenyl)-6,13-dioxo-13H-[1,4]diazocino[2,1-g][1,7]naphthyridine] displayed a melting point of 226 to 228 °C.
The value for `CNCc1cc(-c2ccccc2)c2c(n1)OCCN(Cc1cc(C(F)(F)F)cc(C(F)(F)F)c1)C2=O` [Example 44, 4-[3,5-Bis(trifluoromethyl)benzyl]-2,3,4,5-tetrahydro-8-methylaminomethyl-5-oxo-6-phenylpyrido[3,2-f][1,4]oxazepine] was 152 to 154 °C.
The figure for `Cc1ccc(-c2ccnc3c2C(=O)N(Cc2ccccc2)CCO3)cc1` [Example 79, 4-Benzyl-2,3,4,5-tetrahydro-5-oxo-6-(4-methylphenyl)pyrido(3,2-f][1,4]oxazepine] is 203 to 204 °C; for `C[C@H]1CCn2c(c(-c3ccccc3)c3cccnc3c2=O)C(=O)N(Cc2cc(C(F)(F)F)cc(C(F)(F)F)c2)C1` [Example 19, (9S)-7-[3,5-Bis(trifluoromethyl)benzyl]-6,7,8,9,10,11-hexahydro-9-methyl-6,13-dioxo-5-phenyl-13H-[1,4]diazocino[2,1-g][1,7]naphthyridine] it is 242 to 244 °C; for `COc1ccc(CN2CCOc3nccc(-c4ccccc4)c3C2=O)cc1OC` [Example 66, 4-(3,4-Dimethoxybenzyl)-2,3,4,5-tetrahydro-5-oxo-6-phenylpyrido[3,2-f][1,4]oxazepine] it is 175 to 176 °C.
The figure for `Cc1cnc2c(c1-c1ccccc1)C(=O)N(Cc1cc(C(F)(F)F)cc(C(F)(F)F)c1)C[C@@H](C)CO2` [Example 32, (R)-5-[3,5-Bis(trifluoromethyl)benzyl]-2,3,4,5-tetrahydro-3,8-dimethyl-6-oxo-7-phenyl-6H-pyrido[2,3-b][1,5]oxazocine] is 147 to 149 °C.
Compound `Cc1cc(-c2ccccc2)c2c([n+]1[O-])OCCN(Cc1cc(C(F)(F)F)cc(C(F)(F)F)c1)C2=O` [Example 35] had a melting point of 181 to 183 °C.
The value for `C[C@@H]1COc2nccc(-c3ccccc3)c2C(=O)N(Cc2cc(C(F)(F)F)cc(C(F)(F)F)c2)C1` [Example 71, (S)-5-[3,5-Bis(trifluoromethyl)benzyl]-2,3,4,5-tetrahydro-3-methyl-6-oxo-7-phenyl-6H-pyrido[2,3-b][1,5]oxazocine] was 142 to 143 °C; that for `CC(=O)OCc1cc(-c2ccccc2)c2c(n1)OCCCN(Cc1cc(C(F)(F)F)cc(C(F)(F)F)c1)C2=O` [Example 38, 9-Acetoxymethyl-5-[3,5-bis(trifluoromethyl)benzyl]-2.3,4,5-tetrahydro-6-oxo-7-phenyl-6H-pyrido[2,3-b][1,5]oxazocine] was 156 to 157 °C.
The figure for `CC(=O)NCc1cc(-c2ccccc2)c2c(n1)OCCN(Cc1cc(C(F)(F)F)cc(C(F)(F)F)c1)C2=O` [Example 48, 8-Acetylaminomethyl-4-[3,5-bis(trifluoromethyl)benzyl]-2,3,4,5-tetrahydro-5-oxo-6-phenylpyrido[3,2-f][1,4]oxazepine] is 223 to 224 °C; for `Cc1ccc(-c2ccnc3c2C(=O)N(Cc2cc(C(F)(F)F)cc(C(F)(F)F)c2)C[C@H](C)CO3)cc1` [Example 82, (S)-5-[3,5-Bis(trifluoromethyl)benzyl]2,3,4,5-tetrahydro-3-methyl-7-(4-methylphenyl)-6-oxo-6H-pyrido[2,3-b][1,5]oxazocine] it is 159 to 160 °C; for `Cc1ccc(-c2c3n(c(=O)c4ncccc24)CC[C@H](C)CN(Cc2cc(C(F)(F)F)cc(C(F)(F)F)c2)C3=O)cc1` [Example 20, (9S)-7-[3,5-Bis(trifluoromethyl)benzyl]-6,7,8,9,10,11-hexahydro-9-methyl-5-(4-methylphenyl)-6,13-dioxo-13H-[1,4]diazocino[2,1-g][1,7]naphthyridine] it is 227 to 228 °C.

Source of the values: US6489315B1, “Cyclic compounds, their production and use” (Takeda Chemical Industries, Ltd., priority 1995, dated 2002).
